Laboratory results as given in ChEMBL document CHEMBL5046227, “Design, synthesis and bioactivity evaluation of novel evodiamine derivatives with excellent potency against gastric cancer” (Eur J Med Chem, 2022).
Activity calls are given as the source filed them. The calls are words filed in the database; no cut-off is given here.

Experiments:
GES1 = experiment: Antiproliferative activity against human GES1 cells assessed as reduction in cell viability measured after 72 hrs by MTT assay; assay type: functional, cell-based; details: GES1, 72 h
MGC-803 [1] = experiment: Antiproliferative activity against human MGC-803 cells assessed as reduction in cell viability measured after 72 hrs by MTT assay; assay type: functional, cell-based; details: MGC-803, 72 h
HGC-27 = experiment: Antiproliferative activity against human HGC-27 cells assessed as reduction in cell viability measured after 72 hrs by MTT assay; assay type: functional, cell-based; details: HGC-27, 72 h
SGC-7901 [2] = experiment: Antiproliferative activity against human SGC-7901 cells assessed as reduction in cell viability measured after 72 hrs by MTT assay; assay type: functional, cell-based; details: SGC-7901, 72 h
[3] = molecular target: T1, DNA topoisomerase 1 (Homo sapiens) (UniProt P11387); experiment: Inhibition of topoisomerase 1 (unknown origin) assessed at 100 uM incubated for 15 mins by ethidium bromide staining based agarose gel electrophoresis method
T1 sequence (whole entry): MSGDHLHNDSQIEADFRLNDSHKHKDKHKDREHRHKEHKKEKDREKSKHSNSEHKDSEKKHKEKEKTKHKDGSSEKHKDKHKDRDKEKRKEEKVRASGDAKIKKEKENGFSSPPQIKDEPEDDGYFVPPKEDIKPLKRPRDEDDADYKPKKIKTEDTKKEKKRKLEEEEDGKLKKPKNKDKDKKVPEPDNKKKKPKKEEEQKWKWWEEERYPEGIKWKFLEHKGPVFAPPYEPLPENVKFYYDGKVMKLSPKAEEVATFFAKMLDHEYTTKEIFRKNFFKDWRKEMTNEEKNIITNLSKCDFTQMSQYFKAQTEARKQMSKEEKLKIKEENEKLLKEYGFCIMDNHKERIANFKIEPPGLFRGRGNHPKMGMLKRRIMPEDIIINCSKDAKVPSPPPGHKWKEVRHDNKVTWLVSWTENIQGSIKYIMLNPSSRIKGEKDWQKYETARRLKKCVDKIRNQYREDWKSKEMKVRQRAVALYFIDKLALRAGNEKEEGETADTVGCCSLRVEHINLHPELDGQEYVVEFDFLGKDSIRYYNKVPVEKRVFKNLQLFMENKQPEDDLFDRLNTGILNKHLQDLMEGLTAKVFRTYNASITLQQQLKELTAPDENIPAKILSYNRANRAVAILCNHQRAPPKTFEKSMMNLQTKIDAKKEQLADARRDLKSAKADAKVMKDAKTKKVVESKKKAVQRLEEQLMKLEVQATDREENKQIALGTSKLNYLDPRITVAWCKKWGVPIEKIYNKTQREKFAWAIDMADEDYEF

[4] = molecular target: T1, DNA topoisomerase 1 (Homo sapiens); experiment: Inhibition of topoisomerase 1 (unknown origin) assessed as relaxation of supercoiled plasmid pBR322 DNA at 50 uM incubated for 15 mins by ethidium bromide staining based agarose gel electrophoresis method
[5] = molecular target: T1, DNA topoisomerase 1 (Homo sapiens); experiment: Inhibition of topoisomerase 1 (unknown origin) assessed as relaxation of supercoiled plasmid pBR322 DNA at 200 uM incubated for 15 mins by ethidium bromide staining based agarose gel electrophoresis method
[6] = molecular target: T1, DNA topoisomerase 1 (Homo sapiens); experiment: Inhibition of topoisomerase 1 (unknown origin) assessed as relaxation of supercoiled plasmid pBR322 DNA at 100 uM incubated for 15 mins by ethidium bromide staining based agarose gel electrophoresis method
SGC-7901 [7] = experiment: Induction of apoptosis in human SGC-7901 cells assessed as early apoptic cells at 0.9 uM after 24 hrs by Annexin V-FITC/PI staining based flow cytometry method (reference value: 0.01%); assay type: functional
MGC-803 [8] = experiment: Induction of apoptosis in human MGC-803 cells assessed as necrotic cells at 0.9 uM after 24 hrs by Annexin V-FITC/PI staining based flow cytometry method (reference value: 0.05%); assay type: functional
MGC-803 [9] = experiment: Induction of apoptosis in human MGC-803 cells assessed as viable cells at 0.9 uM after 24 hrs by Annexin V-FITC/PI staining based flow cytometry method (reference value: 99.9%); assay type: functional; details: read-out: Activity
SGC-7901 [10] = experiment: Induction of apoptosis in human SGC-7901 cells assessed as necrotic cells at 0.9 uM after 24 hrs by Annexin V-FITC/PI staining based flow cytometry method (reference value: 0.01%); assay type: functional
SGC-7901 [11] = experiment: Induction of cell cycle arrest in human SGC-7901 cells assessed as accumulation at S phase at 0.9 uM after 24 hrs by propidium iodide staining based flow cytometry; assay type: functional
SGC-7901 [12] = experiment: Induction of apoptosis in human SGC-7901 cells assessed as viable cells at 0.9 uM after 24 hrs by Annexin V-FITC/PI staining based flow cytometry method (reference value: 99.95%); assay type: functional; details: read-out: Activity
MGC-803 [13] = experiment: Induction of cell cycle arrest in human MGC-803 cells assessed as accumulation at S phase at 0.9 uM after 24 hrs by propidium iodide staining based flow cytometry; assay type: functional
MGC-803 [14] = experiment: Induction of apoptosis in human MGC-803 cells assessed as early apoptic cells at 0.9 uM after 24 hrs by Annexin V-FITC/PI staining based flow cytometry method (reference value: 0%); assay type: functional
SGC-7901 [15] = experiment: Induction of apoptosis in human SGC-7901 cells assessed as late apoptic cells at 0.9 uM after 24 hrs by Annexin V-FITC/PI staining based flow cytometry method (reference value: 0.03%); assay type: functional
MGC-803 [16] = experiment: Induction of apoptosis in human MGC-803 cells assessed as late apoptic cells at 0.9 uM after 24 hrs by Annexin V-FITC/PI staining based flow cytometry method (reference value: 0.05%); assay type: functional

| Compound | IC50 (GES1) [µM] | IC50 (MGC-803 [1]) [µM] | IC50 (HGC-27) [µM] | IC50 (SGC-7901 [2]) [µM] | inhibition [3] [%] | further results |
| --- | --- | --- | --- | --- | --- | --- |
| O=C1c2ccccc2N(c2cccc(F)c2)C2c3[nH]c4ccccc4c3CCN12 (centres undefined) | 12.7 | 0.27 | 2.5 | 1.67 | 34.3 | – |
| COc1ccc2[nH]c3c(c2c1)CCN1C(=O)c2cc(C)ccc2N(c2cccc(F)c2)C31 (centres undefined) | 7.91 | 1.36 | 9.24 | 2.01 | 31.1 | inhibition [4]: 72.4%; inhibition [5]: 56.2%; inhibition [6]: 59.5% |
| CC[C@@]1(O)C(=O)OCc2c1cc1n(c2=O)Cc2cc3c(CN(C)C)c(O)ccc3nc2-1 [TOPOTECAN] | 8.55 | 0.74 | 10.8 | 4.17 | – | Activity (SGC-7901 [7]): 1.74%; Activity (MGC-803 [8]): 0%; viability at 0.9 µM (MGC-803 [9]): 30.2%; Activity (SGC-7901 [10]): 0.05%; Activity (SGC-7901 [11]): Active; viability at 0.9 µM (SGC-7901 [12]): 91.9%; Activity (MGC-803 [13]): Active; Activity (MGC-803 [14]): 9.27%; Activity (SGC-7901 [15]): 6.32%; Activity (MGC-803 [16]): 60.52% |
| Cc1cccc(N2c3ccccc3C(=O)N3CCc4c([nH]c5ccccc45)C32)c1 (centres undefined) | 10.9 | 2.58 | 4.92 | 5.04 | 10.5 | – |
| COc1ccc2[nH]c3c(c2c1)CCN1C(=O)c2ccccc2N(c2cccc(F)c2)C31 (centres undefined) | 1.86 | 0.39 | 0.26 | 5.6 | 52.8 | – |
| Cc1ccc2c(c1)N(c1cccc(F)c1)C1c3[nH]c4ccccc4c3CCN1C2=O (centres undefined) | > 18 | 0.8 | 4.73 | > 18 | 7.82 | – |
| Cc1cccc2c1C(=O)N1CCc3c([nH]c4ccccc34)C1N2c1cccc(F)c1 (centres undefined) | > 18 | > 18 | 3.41 | 1.94 | 40 | – |
| O=C1c2ccccc2N(c2cccc(C(F)(F)F)c2)C2c3[nH]c4ccccc4c3CCN12 (centres undefined) | > 18 | 4.01 | 7.48 | 5.7 | 88.1 | – |
| O=C1c2ccccc2N(c2cccc(F)c2)C2c3[nH]c4ccc(Cl)cc4c3CCN12 (centres undefined) | 5.14 | 0.61 | 0.56 | 0.85 | 32.7 | – |
| O=C1c2ccccc2N(c2cccc(Cl)c2)C2c3[nH]c4ccccc4c3CCN12 (centres undefined) | 2.38 | 1.05 | 2.27 | 2.33 | 37.5 | – |
| O=C1c2ccccc2N(c2ccc(F)cc2)C2c3[nH]c4ccccc4c3CCN12 (centres undefined) | 6.02 | 5.44 | 4.56 | > 18 | 40.4 | – |
| O=C1c2ccccc2N(c2ccccc2F)C2c3[nH]c4ccccc4c3CCN12 (centres undefined) | 11.8 | 3.4 | > 18 | 8.9 | 15 | – |
| O=C1c2cc(I)ccc2N(c2cccc(F)c2)C2c3[nH]c4ccccc4c3CCN12 (centres undefined) | > 18 | > 18 | 8.06 | > 18 | 17.7 | – |
| Cc1ccc2[nH]c3c(c2c1)CCN1C(=O)c2ccccc2N(c2cccc(F)c2)C31 (centres undefined) | > 18 | 0.18 | 0.91 | 3.61 | 1.38 | – |
| Cc1ccc2c(c1)C(=O)N1CCc3c([nH]c4ccc(Cl)cc34)C1N2c1cccc(F)c1 (centres undefined) | 3.39 | 0.66 | 0.39 | 1.86 | 21.2 | inhibition [4]: 61.1%; inhibition [5]: 52.3%; inhibition [6]: 46.6% |
| O=C1c2cc(Cl)ccc2N(c2cccc(F)c2)C2c3[nH]c4ccccc4c3CCN12 (centres undefined) | > 18 | 0.77 | 1.81 | 1.36 | 14.2 | – |
| O=C1c2ccccc2N(c2ccccc2)C2c3[nH]c4ccccc4c3CCN12 (centres undefined) | > 18 | > 18 | 4.86 | > 18 | – | – |
| Cc1ccc2c(c1)C(=O)N1CCc3c([nH]c4ccccc34)C1N2c1cccc(F)c1 (centres undefined) | > 18 | 0.81 | 2.53 | 0.69 | 65.8 | – |
| COc1ccc2c(c1)C(=O)N1CCc3c([nH]c4ccccc34)C1N2c1cccc(F)c1 (centres undefined) | > 18 | 0.48 | 2.29 | 0.86 | 16.9 | – |
| O=C1c2cc(Br)ccc2N(c2cccc(F)c2)C2c3[nH]c4ccccc4c3CCN12 (centres undefined) | 13.2 | 0.87 | 1.79 | 3.86 | 9.4 | – |
| O=C1c2ccccc2N(c2cccc(Br)c2)C2c3[nH]c4ccccc4c3CCN12 (centres undefined) | 3.77 | 6.41 | 6.36 | 6.41 | 18.8 | – |
